Measured values: the supplement of paper PMC5579334

Assays:
HS-PSS [1] = assay: drug sensitivity score (DSS, CellTiter-Glo viability, 72 h) (DSS (dimensionless)); higher = more sensitive; extreme values may be limits of the assay
Outline: (§1)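 Viability was scored by CellTiter-Glo ATP luminescence, scaled from vehicle to positive-control wells, with duplicates averaged where present. The cells, MPNST lines and primary human Schwann cells at 750–1000 per well, sat 72 h at 37 °C, 5% CO2, in 384-well plates preprinted with each compound at five concentrations in 10-fold steps. Four-parameter logistic fits were run on the data. These fits give drug sensitivity score and relative IC50 censored at the top concentration, and percent inhibition is reported at the top concentration.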

HS-Sch-2 [2] = assay: as above
Outline: as §1

YST-1 [3] = assay: as above
Outline: as §1

HS-PSS [4] = assay: drug sensitivity score (DSS, CellTox-Green cytotoxicity, 72 h) (DSS (dimensionless)); higher = more cytotoxic; extreme values may be limits of the assay
Outline: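 MPNST cell lines and primary human Schwann cells were incubated 72 h at 37 °C in 384-well plates holding five 10-fold compound dilutions. CellTox-Green was added before seeding at a final 1:1000 dilution and reported fluorescence from DNA released by disrupted cells. Signals were scaled to vehicle and positive-control wells, and cultures failing plate quality control were dropped. Drug sensitivity score and relative IC50 come from four-parameter logistic fits, with IC50 censored at the top concentration.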

HS-PSS [5] = assay: % inhibition of CellTiter-Glo viability at highest tested concentration (72 h), relative to DMSO and benzethonium chloride controls; higher = more inhibition
Outline: as §1

HS-Sch-2 [6] = assay: as above
Outline: as §1

YST-1 [7] = assay: as above
Outline: as §1

Row | SMILES | drug sensitivity score (HS-PSS [1]) | drug sensitivity score (HS-Sch-2 [2]) | drug sensitivity score (YST-1 [3]) | drug sensitivity score (HS-PSS [4]) | % inhibition (HS-PSS [5]) [%] | % inhibition (HS-Sch-2 [6]) [%] | % inhibition (YST-1 [7]) [%]
1 | CC(=O)O[C@]1(C(C)=O)CC[C@H]2[C@@H]3C=C(C)C4=CC(=O)CC[C@]4(C)[C@H]3CC[C@@]21C [Megestrol acetate] (max concentration tested 10000 nM) | 0 | 0 | 0 | 0 | -2.66 | 2.53 | 6.88
2 | CCc1c2c(nc3ccc(O)cc13)-c1cc3c(c(=O)n1C2)COC(=O)[C@]3(O)CC [SN-38] (max concentration tested 10000 nM) | 22.9 | 36.1 | 36.9 | 20.4 | 77.9 | 100 | 99.7
3 | COc1cccc(OCCCN)c1-c1cc(Nc2cnc(C#N)cn2)n[nH]1 [Prexasertib] (max concentration tested 10000 nM) | 6.05 | 29.9 | 22.2 | 0.01 | 70 | 88.6 | 76.3
4 | CC1CCC(n2c3cnccc3c3cnc(Nc4ccc5c(n4)CCN(C(=O)CO)C5)nc32)CC1 (configuration not stated) [AMG-925] (max concentration tested 1000 nM) | 0 | 0.03 | 0.02 | 0 | 9.07 | 12.2 | 6.95
5 | COC(=O)N[C@@H](C)CNc1nccc(-c2cn(C(C)C)nc2-c2cc(Cl)cc(NS(C)(=O)=O)c2F)n1 [Encorafenib] (max concentration tested 1000 nM) | 2.1 | 0.12 | 0 | 0 | 14 | 14.4 | 3.93
6 | CN(CC(=O)N(Cc1ccc(C2CCCCC2)cc1)c1ccc(C(=O)O)cc1)S(=O)(=O)c1c(F)c(F)c(F)c(F)c1F [SH-4-54] (max concentration tested 25000 nM) | 5.78 | 7.18 | 10.3 | 3.21 | 98.7 | 93 | 100
7 | CNC(=O)c1ccc2cc([C@@]3(O)CCn4cncc43)ccc2c1 [Orteronel] (max concentration tested 10000 nM) | 0 | 0 | 0 | 0 | -7 | -4.34 | 7.23
8 | O=C(Nc1cccc(NC(=O)c2cccc(O)c2O)c1)c1cccc(O)c1O [MST-312] (max concentration tested 10000 nM) | 4.53 | 10.8 | 5.45 | 0.02 | 86.4 | 90.7 | 96.2
9 | NC(=O)c1cccc2cn(-c3ccc(C4CCCNC4)cc3)nc12 (configuration not stated) [Niraparib] (max concentration tested 10000 nM) | 4.28 | 2.37 | 7.91 | 0.21 | 50.4 | 26.4 | 54.5
10 | Cc1sc2c(c1C)C(c1ccc(Cl)cc1)=N[C@@H](CC(=O)OC(C)(C)C)c1nnc(C)n1-2 [JQ1] (max concentration tested 10000 nM) | 10 | 13.1 | 13.1 | 0 | 59.1 | 76.3 | 72.6
11 | C[C@@H](Nc1cc(F)cc(F)c1)c1cc(C(=O)N(C)C)cc2c(=O)cc(N3CCOCC3)oc12 [AZD-8186] (max concentration tested 1000 nM) | 0 | 0 | 1.06 | 0 | -3.47 | -0.99 | 28.9
12 | C[C@H]1C=C2C(=O)O[C@H]3CC[C@@H](C1)[C@@]23O [Galiellalactone] (max concentration tested 25000 nM) | 3.82 | 7.88 | 2.78 | 0 | 58.6 | 93.5 | 64.8
13 | Nc1cccc2c1CN(C1CCC(=O)NC1=O)C2=O (configuration not stated) [Lenalidomide] (max concentration tested 100000 nM) | 0 | 0.18 | 1.7 | 0 | 6.75 | 15.6 | 20.7
14 | N[C@@H](Cc1ccc(N(CCCl)CCCl)cc1)C(=O)O [Melphalan] (max concentration tested 12500 nM) | 0 | 0 | 0 | 0 | 3.32 | 7.23 | 3.44
15 | CC(=O)N(O)CCCCCNC(=O)CCC(=O)N(O)CCCCCNC(=O)CCC(=O)N(O)CCCCCN [Deferoxamine] (max concentration tested 10000 nM) | 8.62 | 10.5 | 6.36 | 1 | 89.5 | 96.3 | 78.5
16 | O=S(=O)(c1cccc2c(O)nccc12)N1CCCNCC1 [Hydroxyfasudil] (max concentration tested 37500 nM) | 1.21 | 1.47 | 0.03 | 0 | 19.5 | 21.6 | 12.7
17 | CCN1CCN(Cc2ccc(-c3cc4c(N[C@H](C)c5ccccc5)ncnc4[nH]3)cc2)CC1 [NVP-AEE788] (max concentration tested 2500 nM) | 1.04 | 0 | 1.87 | 0 | 22.7 | 2.96 | 22.3
18 | Cc1[nH]c(/C=C2\C(=O)Nc3ccccc32)c(C)c1CCC(=O)O [Orantinib] (max concentration tested 10000 nM) | 0.29 | 0 | 0.72 | 20.3 | 15 | 0.75 | 20

Row | SMILES | drug sensitivity score (HS-PSS [1]) | drug sensitivity score (HS-Sch-2 [2]) | drug sensitivity score (YST-1 [3]) | drug sensitivity score (HS-PSS [4]) | % inhibition (HS-PSS [5]) [%] | % inhibition (HS-Sch-2 [6]) [%] | % inhibition (YST-1 [7]) [%]
19 | CS(=O)(=O)N1CCc2c(-c3cnc(N)nc3)nc(N3CCOCC3)nc21 (max concentration tested 10000 nM) | 4.81 | 3.35 | 14.4 | 0 | 42.7 | 32 | 77.8
20 | NCCNc1ccc(NCCN)c2c1C(=O)c1ccncc1C2=O [Pixantrone] (max concentration tested 10000 nM) | 4.51 | 2.43 | 2.81 | 0 | 77.4 | 50.7 | 54.6
21 | CNC(=O)c1cccc2cc(Oc3ccnc4cc(OCC5(N)CC5)c(OC)cc34)ccc12 [Lucitanib] (max concentration tested 10000 nM) | 1.71 | 1.19 | 2.13 | 0 | 23.4 | 31.9 | 26.4
22 | COc1cccc2c1c(O)c(C(=O)N(C)c1ccc(C(F)(F)F)cc1)c(=O)n2C [Tasquinimod] (max concentration tested 10000 nM) | 0.69 | 0 | 3.88 | 0 | 11.8 | 8.66 | 20.7
23 | O=C(/C=C\n1cnc(-c2cc(C(F)(F)F)cc(C(F)(F)F)c2)n1)NNc1cnccn1 [Selinexor] (max concentration tested 10000 nM) | 11.3 | 19.8 | 21.4 | 1.86 | 72.3 | 101 | 95.3
24 | O=C(O)c1ccc(CN2CCC(CN[C@@H]3C[C@H]3c3ccccc3)CC2)cc1 (max concentration tested 10000 nM) | 0 | 0 | 0 | 0 | 2.06 | -4.91 | -3.86
25 | CC[C@H](NC(=O)[C@H](C)NC)C(=O)N1C[C@@H](O)C[C@H]1Cc1c(-c2[nH]c3cc(F)ccc3c2C[C@@H]2C[C@H](O)CN2C(=O)[C@H](CC)NC(=O)[C@H](C)NC)[nH]c2cc(F)ccc12 [Birinapant] (max concentration tested 1000 nM) | 0 | 0 | 0 | 0 | 10.7 | 6.12 | 2.35
26 | CCN(CC)C(=S)SSC(=S)N(CC)CC [Disulfiram] (max concentration tested 100000 nM) | 30.6 | 27 | 30.7 | 8.67 | 101 | 101 | 101
27 | O=C(O)c1ccc(O)c2ncccc12 [IOX-1] (max concentration tested 100000 nM) | 0 | 0.26 | 2.03 | 0 | 1.4 | 18.7 | 46
28 | CCNC(=O)Nc1ccc(-c2nc3c(c(N4CCOC[C@@H]4C)n2)CCN(C2COC2)C3)cc1 [RG-7603] (max concentration tested 2500 nM) | 1.5 | 3.02 | 6.56 | 0 | 32.4 | 33.8 | 56.2
29 | CCc1cc2c(cc1N1CCC(N3CCOCC3)CC1)C(C)(C)c1[nH]c3cc(C#N)ccc3c1C2=O [Alectinib] (max concentration tested 1000 nM) | 7.01 | 0 | 0.28 | 0 | 42.8 | 2.24 | 17.5
30 | COc1cc(C(=O)NC2CCN(C)CC2)c(F)cc1Nc1ncc2c(n1)N(C1CCCC1)CC(F)(F)C(=O)N2C [TAK-960] (max concentration tested 2500 nM) | 0 | 0.18 | 0 | 0 | 11.9 | 16.2 | 2.44
31 | O=C(O)CC1CC(c2ccccc2)=NO1 (configuration not stated) [VGX-1027] (max concentration tested 10000 nM) | 0 | 0.12 | 0 | 0 | 4.47 | 13.4 | 4
32 | CN1CCC(CNc2ccc3ncc(-c4cccc(OC(F)(F)F)c4)n3n2)CC1 [SGI-1776] (max concentration tested 10000 nM) | 6.88 | 7.09 | 9 | 6.8 | 101 | 101 | 101
33 | CNC(=O)CN1CCC(Oc2cc3c(Nc4cccc(Cl)c4F)ncnc3cc2OC)CC1 [Sapitinib] (max concentration tested 1000 nM) | 0 | 0.17 | 0.48 | 0 | 9.33 | 11.1 | 15.3
34 | CCCCNc1ncc(C(=O)NCc2ccc(-n3ccnc3)cc2)c(NC2CCC(O)CC2)n1 (configuration not stated) [UNC2881] (max concentration tested 2500 nM) | 3.51 | 0 | 3.6 | 0 | 37 | 9.68 | 38.9
35 | CCCNC(=O)Nc1ccc(Oc2ncnc3cc(OC)c(OC)cc23)cc1Cl [KRN-633] (max concentration tested 2500 nM) | 0 | 0 | 0 | 0 | 10.5 | -7.09 | 7.23
36 | O=C(Nc1ccc(OC(F)(F)F)cc1)c1sccc1NCc1ccnc2ccccc12 [OSI-930] (max concentration tested 2500 nM) | 2.5 | 0.3 | 0 | 0 | 23.2 | 17.9 | 1.07
